Results on eight compounds are retold here after patent US20240383856A1 (Zedira GmbH, priority 2021, published 2024).

SMILES strings stand for the structures. pIC50: −log10 of the molar value. Where only a bound is given, the exact number is not on record here.

The nature of data set [1]: Caco-2 permeability assay (CacoReady kit). The following applies: human, Caco-2, Caco-2 barrier, CacoReady kit; above 1×10^−6 cm/s classified as permeable. The format is in vitro ADME. Put shortly:
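Apparent permeability coefficients (Papp) were measured across Caco-2 cell barriers using a ready-to-use kit run per the supplier's protocol. Values serve as a predictor of oral/intestinal bioavailability.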
In general terms: Passage across Caco-2 layers is used to estimate intestinal permeability.

The target of data set [2] is T1, recombinant human transglutaminase 2 (Homo sapiens, UniProt P21980).
T1 construct: purchased Zedira T022
T1 sequence (P21980 1-687): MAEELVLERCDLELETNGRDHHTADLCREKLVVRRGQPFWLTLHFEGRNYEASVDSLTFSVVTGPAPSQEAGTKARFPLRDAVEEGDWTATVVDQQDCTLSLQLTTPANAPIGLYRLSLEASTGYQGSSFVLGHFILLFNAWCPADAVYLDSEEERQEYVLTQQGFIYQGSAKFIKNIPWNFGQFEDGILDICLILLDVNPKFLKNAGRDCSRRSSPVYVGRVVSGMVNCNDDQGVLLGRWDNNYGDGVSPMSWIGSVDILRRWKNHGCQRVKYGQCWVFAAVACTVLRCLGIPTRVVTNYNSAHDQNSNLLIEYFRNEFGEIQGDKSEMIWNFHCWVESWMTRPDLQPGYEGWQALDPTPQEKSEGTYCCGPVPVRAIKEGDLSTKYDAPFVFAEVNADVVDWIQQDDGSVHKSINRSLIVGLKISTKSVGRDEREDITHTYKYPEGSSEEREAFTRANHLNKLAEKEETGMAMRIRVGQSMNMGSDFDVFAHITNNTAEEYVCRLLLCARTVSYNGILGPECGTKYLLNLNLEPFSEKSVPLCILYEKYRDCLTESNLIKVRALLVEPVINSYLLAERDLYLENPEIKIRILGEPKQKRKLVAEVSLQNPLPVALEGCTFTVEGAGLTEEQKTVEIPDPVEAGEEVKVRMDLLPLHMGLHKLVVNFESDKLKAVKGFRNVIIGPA
Description: Transglutaminase assay (DCC-assay): incorporation of dansylcadaverine into dimethylcasein. The note with it: recombinant human TG2 10 nM; dansylcadaverine incorporation into dimethylcasein; read-out: IC50 TG2. Format: biochemical. Put shortly:
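Recombinant human TG2 (10 nM final) incorporates dansylcadaverine into N,N-dimethylcasein. Reaction mix: 50 mM Tris-HCl, 10 mM CaCl2, 10 mM glutathione, 2.5% glycerol, 16.7 µM dansylcadaverine, 4 µM dimethylcasein, 200 mM NaCl, pH 8.0. Fluorescence (ex 330/em 500 nm) was followed 30 min at 37 °C; the 20–30 min slope, expressed as % of 2% DMSO control, gave IC50.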

Data set [3] in a line: logD by shake flask method (octanol / PBS pH 7.4, HPLC). Format: physicochemical. The note with it: octanol / PBS pH 7.4, shake flask. Put shortly:
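Shake-flask partition of compound between octanol and phosphate-buffered saline at pH 7.4, with each phase quantified by HPLC to give LogD.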

In the case of `CNC(=O)C(=O)CC[C@H](NC(=O)c1cc(Cl)sc1Cl)C(=O)Nc1cccn(CC(=O)N[C@H]2C[C@H]3CC[C@]2(C)C3(C)C)c1=O` [II-160, (S)-2-(2,5-dichlorothiophene-3-carboxamido)-N6-methyl-5-oxo-N1-(2-oxo-1-(2-oxo-2-((1R,2S,4R)-1,7,7-trimethylbicyclo[2.2.1]heptan-2-ylamino)ethyl)-1,2-dihydropyridin-3-yl)hexanediamide], in data set [1], the Papp (usually the rate of passage across a membrane or cell layer, normalised by area and donor concentration) was 1 to 10 ×10⁻⁶ cm/s. Further, the pIC50 – broadly, the IC50 on a negative log10 scale, so that one unit is a factor of ten – in data set [2] was 6.40 to 7.40. The logD – broadly, lipophilicity at a set pH, counting ionised and neutral species – in data set [3] fell in the range of 1 to 3.

`CNC(=O)C(=O)CC[C@H](NC(=O)[C@@H]1CCCN1C)C(=O)Nc1cccn(CC(=O)NC2C3CC4CC(C3)CC2C4)c1=O` (stereo partly drawn) [II-54, (S)-N1-(1-(2-(2-adamantylamino)-2-oxoethyl)-2-oxo-1,2-dihydropyridin-3-yl)-N6-methyl-2-((S)-1-methylpyrrolidine-2-carboxamido)-5-oxohexanediamide]: the Papp in data set [1] is less than 1 ×10⁻⁶ cm/s. Further, the pIC50 in data set [2] is 6.40 to 7.40. In addition, the logD in data set [3] fell in the range of 1 to 3.

Take `CC1(C)[C@@H]2CC[C@@]1(C)[C@@H](NC(=O)Cn1cccc(NC(=O)[C@H](CCC(=O)C(N)=O)NC(=O)c3cc4ccccc4o3)c1=O)C2` [II-150, (S)-2-(benzofuran-2-carboxamido)-5-oxo-N1-(2-oxo-1-(2-oxo-2-((1R,2S,4R)-1,7,7-trimethylbicyclo[2.2.1]heptan-2-ylamino)ethyl)-1,2-dihydropyridin-3-yl)hexanediamide]: the Papp in data set [1] fell in the range of 1 to 10 ×10⁻⁶ cm/s. Besides, the pIC50 in data set [2] was 6.40 to 7.40. In addition, in data set [3], the log distribution coefficient (logD) fell in the range of 1 to 3.

Consider `CNC(=O)C(=O)CC[C@H](NC(=O)[C@@H]1CCCN1C(C)=O)C(=O)Nc1cccn(CC(=O)NC2C3CC4CC(C3)CC2C4)c1=O` (stereo partly drawn) [II-50, (S)-2-((S)-1-acetylpyrrolidine-2-carboxamido)-N1-(1-(2-(2-adamantylamino)-2-oxoethyl)-2-oxo-1,2-dihydropyridin-3-yl)-N6-methyl-5-oxohexanediamide], for which the Papp in data set [1] is less than 1 ×10⁻⁶ cm/s. In data set [2], the pIC50 is more than 7.40. The compound further gave a logD in data set [3] of less than 1.

The compound `CNC(=O)C(=O)CC[C@H](NC(=O)c1ncc(OC)o1)C(=O)Nc1cccn(CCC(=O)NC2C3CC4CC(C3)CC2C4)c1=O` (stereo partly drawn) [II-166, (S)-N1-(1-(3-(2-adamantylamino)-3-oxopropyl)-2-oxo-1,2-dihydropyridin-3-yl)-2-(5-methoxyoxazole-2-carboxamido)-N6-methyl-5-oxohexanediamide] gave a Papp in data set [1] of 1 to 10 ×10⁻⁶ cm/s. In addition, the negative logarithm of the IC50 (pIC50) in data set [2] is 5.60 to 6.40. Besides, the pH-dependent lipophilicity (logD) in data set [3] is 1 to 3.

In data set [1], `CNC(=O)C(=O)CC[C@H](NC(=O)c1oc2ccccc2c1C)C(=O)Nc1cccn(CC(=O)NC2(C(=O)OC)C3CC4CC(C3)CC2C4)c1=O` (stereo partly drawn) [II-74, (S)-N1-(1-(2-(2-methyladamantane-2-carboxylate-2-amino)-2-oxoethyl)-2-oxo-1,2-dihydropyridin-3-yl)-N6-methyl-2-(3-methylbenzofuran-2-carboxamido)-5-oxohexanediamide] registered a Papp of less than 1 ×10⁻⁶ cm/s. In addition, the negative logarithm of the IC50 (pIC50) in data set [2] is 5.60 to 6.40. The logD in data set [3] was in the range of 1 to 3.

On to `CNC(=O)C(=O)CC[C@H](NC(=O)c1nonc1N)C(=O)Nc1cccn(CC(=O)NC23CC(C2)C3)c1=O` [II-189, (S)-2-(4-amino-1,2,5-oxadiazole-3-carboxamido)-N1-(1-(2-(bicyclo[1.1.1]pentan-1-ylamino)-2-oxoethyl)-2-oxo-1,2-dihydropyridin-3-yl)-N6-methyl-5-oxohexanediamide], for which the Papp in data set [1] is less than 1 ×10⁻⁶ cm/s. Besides, the pIC50 in data set [2] was 5.60 to 6.40. This compound also came in with a logD in data set [3] of less than 1.

`CNC(=O)C(=O)CC[C@H](NC(=O)c1nc2ccccc2[nH]1)C(=O)Nc1cccn(CC(=O)NC2C3CC4CC(C3)CC2C4)c1=O` (stereo partly drawn) [II-12, (S)-2-(1H-benzo[d]imidazole-2-carboxamido)-N1-(1-(2-(2-adamantylamino)-2-oxoethyl)-2-oxo-1,2-dihydropyridin-3-yl)-N6-methyl-5-oxohexanediamide] yielded a Papp in data set [1] of less than 1 ×10⁻⁶ cm/s. The negative logarithm of the IC50 (pIC50) in data set [2] is 6.40 to 7.40. In addition, the logD in data set [3] lay within 3 to 5.
